Data: patent EP0584797A2, “Novel cephalosporin compounds and processes for the preparation thereof” (LUCKY LTD., priority 1992, dated 1994)
≈ marks a conversion by molar mass, not a printed value.

Columns and labels:
Assay in all cases: minimal inhibitory concentration, two-fold agar dilution
Format in all cases: cell-based
[1] = system: Streptococcus faecalis ATCC 29212; details: Enterococcus faecalis, ATCC29212; Muller-Hinton agar; 37°C; 20 hours; read-out: MIC values against the standard strains
Summary of the method: (§1)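 Compounds were serially diluted two-fold into Mueller-Hinton agar, and each plate was spot-inoculated with the test strain at 10⁷ CFU per ml. Plates were incubated at 37°C for 20 hours before MIC values were read.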

[2] = system: Escherichia coli ATCC 25922; details: ATCC25922, Muller-Hinton agar, 37°C, 20 hours, read-out: MIC values against the standard strains
Summary of the method: as §1

[3] = system: Staphylococcus epidermidis ATCC 12228; details: ATCC12228, Muller-Hinton agar, 37°C, 20 hours, read-out: MIC values against the standard strains
Summary of the method: as §1

[4] = system: Bacillus megaterium ATCC 9885; details: Priestia megaterium, ATCC9885; Muller-Hinton agar; 37°C; 20 hours; read-out: MIC values against the standard strains
Summary of the method: as §1

[5] = system: Shigella flexneri ATCC 11836; details: ATCC11836, Muller-Hinton agar, 37°C, 20 hours, read-out: MIC values against the standard strains
Summary of the method: as §1

[6] = system: Providencia rettgeri ATCC 9250; details: ATCC9250, Muller-Hinton agar, 37°C, 20 hours, read-out: MIC values against the standard strains
Summary of the method: as §1

[7] = system: Escherichia coli ATCC 10536; details: ATCC10536, Muller-Hinton agar, 37°C, 20 hours, read-out: MIC values against the standard strains
Summary of the method: as §1

[8] = system: Shigella sonnei ATCC 11060; details: ATCC11060, Muller-Hinton agar, 37°C, 20 hours, read-out: MIC values against the standard strains
Summary of the method: as §1

[9] = system: Salmonella typhimurium ATCC 14028; details: Salmonella enterica; Muller-Hinton agar; 37°C; 20 hours; read-out: MIC values against the standard strains
Summary of the method: as §1

[10] = system: Morganella morganii ATCC 8076h; details: ATCC8076H, Muller-Hinton agar, 37°C, 20 hours, read-out: MIC values against the standard strains
Summary of the method: as §1

[11] = system: Enterobacter aerogenes ATCC 29751; details: Klebsiella aerogenes, ATCC29751; Muller-Hinton agar; 37°C; 20 hours; read-out: MIC values against the standard strains
Summary of the method: as §1

[12] = system: Pseudomonas aeruginosa ATCC 25619; details: ATCC25619, Muller-Hinton agar, 37°C, 20 hours, read-out: MIC values against the standard strains
Summary of the method: as §1

[13] = system: Staphylococcus aureus ATCC 6538p; details: ATCC6538P, Muller-Hinton agar, 37°C, 20 hours, read-out: MIC values against the standard strains
Summary of the method: as §1

[14] = system: Klebsiella pneumoniae ATCC 10031; details: ATCC10031, Muller-Hinton agar, 37°C, 20 hours, read-out: MIC values against the standard strains
Summary of the method: as §1

[15] = system: Proteus mirabilis ATCC 25933; details: ATCC25933, Muller-Hinton agar, 37°C, 20 hours, read-out: MIC values against the standard strains
Summary of the method: as §1

[16] = system: Staphylococcus aureus ATCC 10537; details: ATCC10537, Muller-Hinton agar, 37°C, 20 hours, read-out: MIC values against the standard strains
Summary of the method: as §1

[17] = system: Citrobacter freundii ATCC 8090; details: ATCC8090, Muller-Hinton agar, 37°C, 20 hours, read-out: MIC values against the standard strains
Summary of the method: as §1

[18] = system: Bacillus cereus ATCC 11778; details: ATCC11778, Muller-Hinton agar, 37°C, 20 hours, read-out: MIC values against the standard strains
Summary of the method: as §1

[19] = system: Serratia marcescens ATCC 27117; details: ATCC27117, Muller-Hinton agar, 37°C, 20 hours, read-out: MIC values against the standard strains
Summary of the method: as §1

[20] = system: Pseudomonas aeruginosa ATCC 10145; details: ATCC10145, Muller-Hinton agar, 37°C, 20 hours, read-out: MIC values against the standard strains
Summary of the method: as §1

[21] = system: Pseudomonas aeruginosa ATCC 27853; details: ATCC27853, Muller-Hinton agar, 37°C, 20 hours, read-out: MIC values against the standard strains
Summary of the method: as §1

[22] = system: Acinetobacter calcoaceticus ATCC 15437; details: ATCC15437, Muller-Hinton agar, 37°C, 20 hours, read-out: MIC values against the standard strains
Summary of the method: as §1

[23] = system: Enterobacter cloacae ATCC 27508; details: ATCC27508, Muller-Hinton agar, 37°C, 20 hours, read-out: MIC values against the standard strains
Summary of the method: as §1

[24] = system: Micrococcus luteus ATCC 9341; details: ATCC9341, Muller-Hinton agar, 37°C, 20 hours, read-out: MIC values against the standard strains
Summary of the method: as §1

[25] = system: Proteus vulgaris ATCC 6059; details: ATCC6059, Muller-Hinton agar, 37°C, 20 hours, read-out: MIC values against the standard strains
Summary of the method: as §1

## C[n+]1c(SCC2=C(C(=O)[O-])N3C(=O)[C@@H](NC(=O)/C(=N\OC(C)(C)C(=O)O)c4csc(N)n4)[C@H]3SC2)nc(N)c(N)c1N [Example 1]
[1]
  MIC: > 128 µg/mL
[2]
  MIC: 0.063 µg/mL (≈ 0.0986 µM)
[3]
  MIC: 2 µg/mL (≈ 3.13 µM)
[4]
  MIC: 0.25 µg/mL (≈ 0.391 µM)
[5]
  MIC: 0.031 µg/mL (≈ 0.0485 µM)
[6]
  MIC: ≤ 0.008 µg/mL
[7]
  MIC: 0.13 µg/mL (≈ 0.204 µM)
[8]
  MIC: 0.13 µg/mL (≈ 0.204 µM)
[9]
  MIC: 0.25 µg/mL (≈ 0.391 µM)
[10]
  MIC: ≤ 0.008 µg/mL
[11]
  MIC: 2 µg/mL (≈ 3.13 µM)
[12]
  MIC: 1 µg/mL (≈ 1.57 µM)
[13]
  MIC: 8 µg/mL (≈ 12.5 µM)
[14]
  MIC: 0.063 µg/mL (≈ 0.0986 µM)
[15]
  MIC: 0.063 µg/mL (≈ 0.0986 µM)
[16]
  MIC: 2 µg/mL (≈ 3.13 µM)
[17]
  MIC: 0.13 µg/mL (≈ 0.204 µM)
[18]
  MIC: 128 µg/mL (≈ 200 µM)
[19]
  MIC: 0.25 µg/mL (≈ 0.391 µM)
[20]
  MIC: 2 µg/mL (≈ 3.13 µM)
[21]
  MIC: 1 µg/mL (≈ 1.57 µM)
[22]
  MIC: 8 µg/mL (≈ 12.5 µM)
[23]
  MIC: 0.016 µg/mL (≈ 0.0251 µM)
[24]
  MIC: 0.25 µg/mL (≈ 0.391 µM)
[25]
  MIC: 0.063 µg/mL (≈ 0.0986 µM)

## C[n+]1ccc(N)nc1SCC1=C(C(=O)[O-])N2C(=O)[C@@H](NC(=O)/C(=N\OC(C)(C)C(=O)O)c3csc(N)n3)[C@H]2SC1 [Example 2, 7-[(Z)-2-(aminothiazol-4-yl)-2-(carboxyprop-2-oxyimino)acetamido]-3-(4-amino-1-methylpyrimidinium-2-yl)thiomethyl-3-cephem-4-carboxylate]
[1]
  MIC: > 128 µg/mL
[2]
  MIC: 0.031 µg/mL (≈ 0.0509 µM)
[3]
  MIC: 2 µg/mL (≈ 3.29 µM)
[4]
  MIC: 0.25 µg/mL (≈ 0.411 µM)
[5]
  MIC: 0.016 µg/mL (≈ 0.0263 µM)
[6]
  MIC: ≤ 0.008 µg/mL
[7]
  MIC: 0.031 µg/mL (≈ 0.0509 µM)
[8]
  MIC: 0.063 µg/mL (≈ 0.104 µM)
[9]
  MIC: 0.13 µg/mL (≈ 0.214 µM)
[10]
  MIC: ≤ 0.008 µg/mL
[11]
  MIC: 1 µg/mL (≈ 1.64 µM)
[12]
  MIC: 1 µg/mL (≈ 1.64 µM)
[13]
  MIC: 4 µg/mL (≈ 6.57 µM)
[14]
  MIC: 0.031 µg/mL (≈ 0.0509 µM)
[15]
  MIC: 0.031 µg/mL (≈ 0.0509 µM)
[16]
  MIC: 2 µg/mL (≈ 3.29 µM)
[17]
  MIC: 0.031 µg/mL (≈ 0.0509 µM)
[18]
  MIC: 64 µg/mL (≈ 105 µM)
[19]
  MIC: 0.063 µg/mL (≈ 0.104 µM)
[20]
  MIC: 2 µg/mL (≈ 3.29 µM)
[21]
  MIC: 1 µg/mL (≈ 1.64 µM)
[22]
  MIC: 4 µg/mL (≈ 6.57 µM)
[23]
  MIC: ≤ 0.008 µg/mL
[24]
  MIC: 0.25 µg/mL (≈ 0.411 µM)
[25]
  MIC: 0.063 µg/mL (≈ 0.104 µM)

## CCO/N=C(\C(=O)N[C@@H]1C(=O)N2C(C(=O)[O-])=C(CSc3nc(N)c(N)c(N)[n+]3C)CS[C@H]12)c1csc(N)n1 [Example 3, 7-[(Z)-2-(aminothiazol-4-yl)-2-(ethoxyimino)acetamido]-3-(4,5,6-triamino-1-methylpyrimidinium-2-yl)thiomethyl-3-cephem-4-carboxylate]
[1]
  MIC: 64 µg/mL (≈ 110 µM)
[2]
  MIC: 0.063 µg/mL (≈ 0.108 µM)
[3]
  MIC: 0.13 µg/mL (≈ 0.224 µM)
[4]
  MIC: 0.031 µg/mL (≈ 0.0534 µM)
[5]
  MIC: 0.063 µg/mL (≈ 0.108 µM)
[6]
  MIC: ≤ 0.008 µg/mL
[7]
  MIC: 0.063 µg/mL (≈ 0.108 µM)
[8]
  MIC: 0.25 µg/mL (≈ 0.431 µM)
[9]
  MIC: 0.5 µg/mL (≈ 0.861 µM)
[10]
  MIC: ≤ 0.008 µg/mL
[11]
  MIC: 0.5 µg/mL (≈ 0.861 µM)
[12]
  MIC: 0.5 µg/mL (≈ 0.861 µM)
[13]
  MIC: 0.5 µg/mL (≈ 0.861 µM)
[14]
  MIC: ≤ 0.008 µg/mL
[15]
  MIC: 0.25 µg/mL (≈ 0.431 µM)
[16]
  MIC: 0.25 µg/mL (≈ 0.431 µM)
[17]
  MIC: 0.063 µg/mL (≈ 0.108 µM)
[18]
  MIC: 32 µg/mL (≈ 55.1 µM)
[19]
  MIC: 0.25 µg/mL (≈ 0.431 µM)
[20]
  MIC: 8 µg/mL (≈ 13.8 µM)
[21]
  MIC: 4 µg/mL (≈ 6.89 µM)
[22]
  MIC: 8 µg/mL (≈ 13.8 µM)
[23]
  MIC: 0.016 µg/mL (≈ 0.0276 µM)
[24]
  MIC: 0.031 µg/mL (≈ 0.0534 µM)
[25]
  MIC: 0.25 µg/mL (≈ 0.431 µM)
